Literature values, collected in patent publication US20030099708A1, “Printing or dispensing a suspension such as three-dimensional printing of dosage forms” (Therics, Inc, priority 2001, published 2003).

Conditions: statement in words, no test described

Q: With CC[C@@]1(O)C(=O)OCc2c1cc1n(c2=O)Cc2cc3ccccc3nc2-1 [camptothecin] as the molecule, how does the solubility in water read?
A: substantially insoluble
